Source: article PMC7525011, “Mycobacterium tuberculosis Calcium Pump CtpF Modulates the Autophagosome in an mTOR-Dependent Manner” (Frontiers in Cellular and Infection Microbiology, 2020)

Target: CtpF (Mycobacterium tuberculosis, UniProt P9WPS9)
Details: with Ca2+ or Mg2+; 1 mM ATP; 60 mM Tris pH 7.4, 100 mM KCl; described as competitive inhibitor

Sequence of CtpF (P9WPS9 whole entry): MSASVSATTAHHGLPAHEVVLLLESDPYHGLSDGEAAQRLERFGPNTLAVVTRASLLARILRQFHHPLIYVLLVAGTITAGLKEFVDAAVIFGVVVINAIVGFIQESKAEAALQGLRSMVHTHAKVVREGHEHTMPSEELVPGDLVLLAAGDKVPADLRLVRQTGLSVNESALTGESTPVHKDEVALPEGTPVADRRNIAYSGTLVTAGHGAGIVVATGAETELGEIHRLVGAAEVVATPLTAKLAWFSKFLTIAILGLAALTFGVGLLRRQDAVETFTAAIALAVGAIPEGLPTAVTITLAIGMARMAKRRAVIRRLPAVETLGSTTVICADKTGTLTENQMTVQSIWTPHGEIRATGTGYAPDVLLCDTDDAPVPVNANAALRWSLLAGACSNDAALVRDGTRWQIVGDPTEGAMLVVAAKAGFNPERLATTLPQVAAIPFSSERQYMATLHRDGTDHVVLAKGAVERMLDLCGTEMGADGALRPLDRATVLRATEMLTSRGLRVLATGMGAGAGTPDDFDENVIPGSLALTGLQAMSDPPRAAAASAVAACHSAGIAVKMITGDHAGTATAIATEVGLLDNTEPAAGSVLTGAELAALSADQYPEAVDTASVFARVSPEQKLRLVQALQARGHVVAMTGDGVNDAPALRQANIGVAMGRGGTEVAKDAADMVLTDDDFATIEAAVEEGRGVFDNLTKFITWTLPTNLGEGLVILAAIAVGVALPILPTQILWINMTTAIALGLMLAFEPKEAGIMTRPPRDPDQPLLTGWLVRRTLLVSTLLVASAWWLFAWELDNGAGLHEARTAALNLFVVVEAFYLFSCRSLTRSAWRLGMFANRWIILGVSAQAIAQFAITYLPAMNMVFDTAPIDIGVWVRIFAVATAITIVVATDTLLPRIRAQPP

## [O]=[V]([OH])([OH])[OH] [sodium orthovanadate]
  complete inhibition of Pi release: sodium orthovanadate, a competitive inhibitor of ATPase activity was used in the reaction
